According to patent US6627652B1, “Method of treatment with compounds having selective agonist-like activity on RXR retinoid receptors” (Allergan, Inc., priority 1993, dated 2003):
pEC50: −log10 of the molar value. ≈ marks a conversion by molar mass, not a printed value. Entries after “also recorded” stand apart in the source; their conditions may differ. Read-outs that look alike come from different tables or passages of the source.

Experiments:
chimeric RXRα receptor = molecular target: T1, chimeric RXRα receptor (Homo sapiens, UniProt P19793); experiment: Cationic Liposome Mediated Transfection Assay (ERE-CAT reporter in HeLa cells), RXRα; type: cell-based; settings: concentration giving 50% of maximum CAT activity of reference AGN 191440
T1 construct: expressed in transfected cells; host or cells: HeLa cells
T1 sequence (P19793 227-458 limits assumed): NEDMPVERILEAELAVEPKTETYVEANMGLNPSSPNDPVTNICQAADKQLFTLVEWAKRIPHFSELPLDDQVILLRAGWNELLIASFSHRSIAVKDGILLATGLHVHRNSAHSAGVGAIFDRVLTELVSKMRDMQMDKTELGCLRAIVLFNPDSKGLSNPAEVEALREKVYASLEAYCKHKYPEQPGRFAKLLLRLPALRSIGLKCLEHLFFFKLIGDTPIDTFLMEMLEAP

chimeric RARβ receptor = molecular target: T2, chimeric RARβ receptor (Homo sapiens, UniProt P10826); experiment: Cationic Liposome Mediated Transfection Assay (ERE-CAT reporter in HeLa cells), RARβ
T2 sequence (P10826 183-417 limits assumed): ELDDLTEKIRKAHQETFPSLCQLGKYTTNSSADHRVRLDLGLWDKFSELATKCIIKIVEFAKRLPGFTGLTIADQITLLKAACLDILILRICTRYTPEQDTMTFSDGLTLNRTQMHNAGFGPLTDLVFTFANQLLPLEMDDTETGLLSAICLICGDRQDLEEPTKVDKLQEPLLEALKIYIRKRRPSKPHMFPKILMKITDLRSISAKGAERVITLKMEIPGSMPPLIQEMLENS

chimeric RARγ receptor = molecular target: T3, chimeric RARγ receptor (Homo sapiens, UniProt P13631); experiment: Cationic Liposome Mediated Transfection Assay (ERE-CAT reporter in HeLa cells), RARγ
T3 sequence (P13631 185-419 limits assumed): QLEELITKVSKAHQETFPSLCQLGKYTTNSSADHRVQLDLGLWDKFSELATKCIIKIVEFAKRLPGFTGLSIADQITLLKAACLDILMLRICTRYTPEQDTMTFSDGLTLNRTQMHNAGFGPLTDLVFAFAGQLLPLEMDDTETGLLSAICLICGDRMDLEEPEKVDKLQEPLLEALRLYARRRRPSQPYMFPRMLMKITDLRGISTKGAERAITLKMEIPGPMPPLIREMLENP

chimeric RARα receptor = molecular target: T4, chimeric RARα receptor (Homo sapiens, UniProt P10276); experiment: Cationic Liposome Mediated Transfection Assay (ERE-CAT reporter in HeLa cells), RARα
T4 sequence (P10276 183-417 limits assumed): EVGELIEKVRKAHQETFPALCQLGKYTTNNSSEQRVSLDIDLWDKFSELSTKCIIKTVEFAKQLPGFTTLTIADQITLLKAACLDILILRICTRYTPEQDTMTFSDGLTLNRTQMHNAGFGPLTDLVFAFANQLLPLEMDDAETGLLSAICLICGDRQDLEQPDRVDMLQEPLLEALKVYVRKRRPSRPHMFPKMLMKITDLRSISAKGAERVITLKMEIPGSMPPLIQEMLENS

[1] = tested on: limb bud mesenchymal cells; experiment: inhibition of chondrogenesis in high-density spot cultures of limb bud mesenchymal cells; type: cell-based, mouse; settings: for IC50: Mus musculus
Description: An in vitro bioassay which measures inhibition of chondrogenesis (bone formation) in chick embryo cells is considered a classic measure of teratogenecity. The assay is conducted as follows: High-density “spot” cultures of limb bud mesenchymal cells were used to compare the ability of various concentrations of test drugs to suppress chondrogenic differentiation as a bioassay. Forelimb buds of mouse embryos on day 12 of gestation (54±2 somites) were dissociated in a trypsin-EDTA solution, and the resultant single-cell suspension was plated as 20-μl spots (200,000 cells/spot) on plastic culture dishes. Retinoid concentrations ranging from 0.3 ng/ml to 3 μg/ml (1 nM-10 μM) were added to the culture medium (Eagle's MEM+10% fetal bovine serum, GIBCO) 24 hours after initial plating. Control cultures received only the vehicle (ethanol, concentration≦1% by vol); Retinoic acid was used as a positive control in another set of cultures. The cultures were terminated 96 hours after plating, at which time the medium was removed and the cells were fixed for 1 hour in 10% formalin containing 0.5% cetylpyridinium chloride. The cultures were rinsed in acetic acid and stained for 1 hour in 0.5% Alcian blue solution at pH 1.0, differentiated in 3% acetic acid, and then dehydrated in ethanol and scored for chondrogenesis under the microscope. An absence or reduction in the number of cartilage nodules in stained cultures as compared with control cultures was taken as a measure of suppression of chondrogenesis. The number of cartilage nodules stained in the whole spot, mean number of nodules, and standard deviations were calculated for four replicate cultures per treatment. The median concentration causing a 50% inhibition of chondrogenesis compared with controls (IC50) was calculated by logarithmic curve fitting of the dose-response data.

gestating ICR mice = experiment: in vivo teratology study in gestating ICR mice; set-up: species or system mouse; settings: for teratogenicity (in words): conclusion from Table 2
Description: The methodology of the study is described as follows: ICR mice (Ace Animals, Boyertown, Pa.) were used. Mature male and virgin female ICR mice were housed in environmentally controlled rooms and acclimatized to a 12 hour light/dark cycle (light cycle 6 A.M. to 6 P.M.) for 2 weeks prior to use. All animals were maintained on Purina Lab Chow and tap water ad libitum. A group of 3-4 females was caged with a single male of proven fertility for 4 hours. Presence of a vaginal plug immediately afterward was regarded as evidence of successful mating, and this day was designated as day 0 of gestation. […] All animals were killed by cervical dislocation under mild ether anesthesia on day 17 of gestation. Upon laparotomy, the fetuses were examined for external malformations and weighed; one-half of each litter was then fixed in 95% ethanol and processed for staining of the skeleton by the rapid, alizarin red-S dye method. These preparations were examined under a dissection microscope to screen for abnormalities in the axial and the appendicular skeleton. The other half of each litter was fixed in Bouin's solution and examined by freehand razor serial sectioning to screen for anomalies of the brain, face, and palate. Differences in dose-related incidence of malformations and resorptions were assessed by computing percentages of affected conceptuses among total implantation sites. The groups were compared statistically by a method based on Student's t-tests of arcs in square root transformed percentages. Values at 0.05 probability level were considered significant. The median effective dose was calculated by logarithmic curve fitting of the dose-response data.

[2] = pharmacokinetic study, concentration in maternal plasma and embryo of mice; type: in vivo; settings: oral intubation, single dose of 10 mg/kg, FIG. 8
Description: FIG. 8 is a graph showing the concentration of compound AGN 191701 (Compound 1) in nanograms per ml, or nanograms per gram as indicated on the chart, in the plasma and embryo of mice at various times after oral intubation of a single dose of 10 mg/kg of the compound.

human sebocyte cultures = experiment: 3H-thymidine incorporation assay in human sebocyte cultures; type: cell-based; settings: FIG. 3, 8 days of treatment
Description: An assay involving human sebocyte cultures measures the inhibition of ^3H-thymidine into cells, and thus measures inhibition of DNA synthesis and thus an anti-proliferative effect on sebocyte (i.e. a sebostatic effect). This assay is also considered a specific assay for effectiveness of a compound as a potential anti-acne drug. The test is conducted as follows. Face-lift or forehead reduction skins from cosmetic surgeries were used as sources of human sebaceous gland cells (sebocytes). Isolated sebocytes were plated in type 1 collagen coated-dishes in DMEM/F12 (1:1) medium supplemented with 8% fetal bovine serum, 2% human serum, 10 ng/ml epidermal growth factor, 1 nM cholera toxin, 1 μM hydrocortisone, and penicillin/streptomycin/amphotericin B. Secondary cultures were prepared by plating Dispase dissociated cells in collagen coated 24-well plates. […] DNA from the cells were extracted by thichoroacetic acid and perchloric acid, and assayed for radioactivity by scintillation counting and for content of DNA by the diphenylamine colorimetric method. The results were expressed as CPM/μg DNA, or as per cent of vehicle control which incorporated about 1,000-1,500 cpm/μg DNA.

[3] = Table 3, cultures terminated 96 hours after plating, read-out: IC50, 50% inhibition of chondrogenesis
[4] = single oral dose 0.01 mg/kg on day 11 of gestation
[5] = single oral dose 0.1 mg/kg on day 11 of gestation
[6] = single oral dose 1 mg/kg on day 11 of gestation
[7] = single oral dose 10 mg/kg on day 11 of gestation
[8] = single oral dose 100 mg/kg on day 11 of gestation

C/C(=C\C=C\c1occc1C(=O)O)c1cc2c(cc1C)C(C)(C)CCC2(C)C [Compound 2]
pEC50 (chimeric RXRα receptor): 5.97

C/C(=C\c1ccc(C(=O)O)o1)c1cc2c(cc1C)C(C)(C)CCC2(C)C [Compound 4]
pEC50 (chimeric RARβ receptor): < 5.00 | pEC50 (chimeric RARγ receptor): < 5.00 | pEC50 (chimeric RARα receptor): < 5.00 | pEC50 (chimeric RXRα receptor): 6.29

C/C(=C\c1ccc(C(=O)O)cc1)c1ccc2c(c1)C(C)(C)CCC2(C)C [Compound 7, reference compound]
IC50 [1, 3]: 0.003 µg/mL (≈ 0.00861 µM) | IC50 ([1]; text b179, read-out: IC50, inhibition of chondrogenesis (unit inferred)): 0.003 µg/mL (≈ 0.00861 µM) | teratogenicity (in words) (gestating ICR mice): much more teratogenic than Compound 1 | # Litters Normal (gestating ICR mice; [4]): 2 | % Cleft Palate (gestating ICR mice; [4]): 29% | % Limb Defects (gestating ICR mice; [4]): 20% | % Resorbed (gestating ICR mice; [4]): 3% | # Litters Normal (gestating ICR mice; [5]): 0 | % Cleft Palate (gestating ICR mice; [5]): 100% | % Limb Defects (gestating ICR mice; [5]): 100% | % Resorbed (gestating ICR mice; [5]): 30% | # Litters Normal (gestating ICR mice; [6]): 0 | % Resorbed (gestating ICR mice; [6]): 100% | # Litters Normal (gestating ICR mice; [7]): 0 | % Resorbed (gestating ICR mice; [7]): 100% | pEC50 (chimeric RXRα receptor): < 5.00

C/C(=C/C=C/c1occc1C(=O)O)c1cc2c(cc1C)C(C)(C)CCC2(C)C [Compound 3]
pEC50 (chimeric RXRα receptor): 5.88

C/C(=C\C=C\C1C[C@H]1C(=O)O)c1cc2c(cc1C)C(C)(C)CCC2(C)C (stereo partly drawn) [Compound 5, Cis-[2-[4-Methyl-4-(3,5,5,8,8,-pentamethyl-5,6,7,8-tetrahydronapthalen)-2-yl]-1E,3E-butadien-1-yl] 1-Cyclopropane Carboxylic Acid]
pEC50 (chimeric RXRα receptor): 6.86

C/C(=C\c1cc(C(=O)O)cs1)c1cc2c(cc1C)C(C)(C)CCC2(C)C [Compound 1, 2-[(E)-2-(5,6,7,8-Tetrahydro-3,5,5,8,8-pentamethylnaphthalen-2-yl)propen-1-yl]thiophene-4-carboxylic Acid]
presence in maternal plasma and embryo (in words) [2]: present in substantial concentration in the maternal plasma and in the embryo | pEC50 (chimeric RARβ receptor): 5.48 | IC50 [1, 3]: 19 µg/mL (≈ 51.6 µM) | IC50 ([1]; text b179, read-out: IC50, inhibition of chondrogenesis): 19 µg/mL (≈ 51.6 µM) | times less teratogenic than Compound 7 in the chondrogenesis assay ([1]; ratio of IC50 values, versus Compound 7): approximately 6.3×10^4 times | teratogenicity (in words) (gestating ICR mice; listed as AGN 191701): practically not teratogenic; also recorded: very little teratogenic effect | # Litters Normal (gestating ICR mice; [6]): 1 | % Cleft Palate (gestating ICR mice; [6]): 0% | % Limb Defects (gestating ICR mice; [6]): 0% | % Resorbed (gestating ICR mice; [6]): 18% | # Litters Normal (gestating ICR mice; [7]): 3 | % Cleft Palate (gestating ICR mice; [7]): 0% | % Limb Defects (gestating ICR mice; [7]): 0% | % Resorbed (gestating ICR mice; [7]): 14% | # Litters Normal (gestating ICR mice; [8]): 2 | % Cleft Palate (gestating ICR mice; [8]): 19% | % Limb Defects (gestating ICR mice; [8]): 22% | % Resorbed (gestating ICR mice; [8]): 2% | pEC50 (chimeric RARγ receptor): 5.97 | inhibition of 3H-thymidine incorporation in sebocytes (in words) (human sebocyte cultures): effective retinoid | pEC50 (chimeric RXRα receptor): 7.17
